# Data from ChEMBL document CHEMBL5715952 (Oncotarget, 2015).
# The source made the active and inactive calls. No cut-off for these calls is given here.
# Columns and labels:
# [1] = target: T1, Bromodomain and extra-terminal motif (BET) (Homo sapiens) (UniProt P25440+O60885+Q58F21+Q15059); assay: Inhibition of BET in human bortezomib-resistant ANBL6 cells assessed as change in protein MYC expression level at 20 nM by immunoblot analysis; format: cell-based; conditions: Bortezomib-resistant ANBL6 cell
# [2] = target: T1, Bromodomain and extra-terminal motif (BET) (Homo sapiens); assay: Inhibition of BET in human bortezomib-resistant ANBL6 cells assessed as increase in protein NOXA expression level at 20 nM by immunoblot analysis; format: cell-based; conditions: Bortezomib-resistant ANBL6 cell
# Proteasome [3] = assay: Inhibition of proteasome in human ANBL-6 cells assessed as reduction of cell growth incubated for 72 hrs by CellTiter 96 aqueous one solution cell proliferation assay; conditions: ANBL-6, 72 h
# ANBL-6 [4] = assay: Induction of apoptosis in wild-type human ANBL-6 cells assessed as viable at 20 nM incubated for 72 hrs by annexin V and 7-AAD staining by flow cytometry analysis (Rvb=59 %); format: functional
# [5] = test system: Bortezomib-resistant ANBL6; assay: Induction of apoptosis in human bortezomib-resistant ANBL6 cells assessed as late apoptosis at 20 nM incubated for 72 hrs by annexin V and 7-AAD staining by flow cytometry analysis (Rvb=5 %); format: functional
# Proteasome [6] = assay: Inhibition of proteasome in human bortezomib-resistant ANBL6 cells assessed as reduction of cell growth incubated for 72 hrs by CellTiter 96 aqueous one solution cell proliferation assay
# Proteasome [7] = assay: Inhibition of proteasome in bortezomib Resistant human RPMI-8226 cells assessed as reduction of cell growth incubated for 72 hrs by CellTiter 96 aqueous one solution cell proliferation assay; conditions: Bortezomib-resistant RPMI-8226, 72 h
# [8] = test system: Bortezomib-resistant ANBL6; assay: Induction of apoptosis in human bortezomib-resistant ANBL6 cells assessed as early apoptosis at 20 nM incubated for 72 hrs by annexin V and 7-AAD staining by flow cytometry analysis (Rvb=15 %); format: functional
# [9] = target: T1, Bromodomain and extra-terminal motif (BET) (Homo sapiens); assay: Inhibition of BET in human ANBL-6 WT cells assessed as increase in protein NOXA expression level at 20 nM by immunoblot analysis; format: cell-based
# Proteasome [10] = assay: Inhibition of proteasome in Melphalan Resistant human RPMI-8226 cells assessed as reduction of cell growth incubated for 72 hrs by CellTiter 96 aqueous one solution cell proliferation assay; conditions: Melphalan-resistant RPMI-8226 cell
# Proteasome [11] = assay: Inhibition of proteasome in human RPMI-8226 cells assessed as reduction of cell growth incubated for 72 hrs by CellTiter 96 aqueous one solution cell proliferation assay; conditions: RPMI-8226, 72 h
# ANBL-6 [12] = assay: Induction of apoptosis in wild-type human ANBL-6 cells assessed as early apoptosis at 20 nM incubated for 72 hrs by annexin V and 7-AAD staining by flow cytometry analysis (Rvb=14 %); format: functional
# [13] = target: T1, Bromodomain and extra-terminal motif (BET) (Homo sapiens); assay: Inhibition of BET in human ANBL-6 WT cells assessed as change in protein MYC expression level at 20 nM by immunoblot analysis; format: cell-based
# Proteasome [14] = assay: Ratio of IC50 for inhibition of proteasome in human ANBL6 cells assessed as reduction of cell viability to IC50 for inhibition of proteasome in human ANBL6/BR resistant cells assessed as reduction of cell viability; conditions: condition multiple myeloma
# ANBL-6 [15] = assay: Induction of apoptosis in wild-type human ANBL-6 cells assessed as late apoptosis at 20 nM incubated for 72 hrs by annexin V and 7-AAD staining by flow cytometry analysis (Rvb=26 %); format: functional
# Proteasome [16] = assay: Inhibition of proteasome in human U-266 cells assessed as reduction of cell growth incubated for 72 hrs by CellTiter 96 aqueous one solution cell proliferation assay; conditions: U-266, 72 h
# Proteasome [17] = assay: Ratio of IC50 for inhibition of proteasome in human RPMI-8226 cells assessed as reduction of cell viability to IC50 for inhibition of proteasome in human RPMI-8226/BR resistant cells assessed as reduction of cell viability; conditions: condition multiple myeloma
# [18] = test system: Bortezomib-resistant ANBL6; assay: Induction of apoptosis in human bortezomib-resistant ANBL6 cells assessed as viable at 20 nM incubated for 72 hrs by annexin V and 7-AAD staining by flow cytometry analysis (Rvb=80 %); format: functional
# U-266 = assay: cells; conditions: Homo sapiens, U-266, 72 h
# [19] = Ratio of IC50 for inhibition of FLT3/cKIT/FGFR3/VEGFR2/PDGFR/CSF1R in human RPMI-8226 cells assessed as reduction of cell viability to IC50 for inhibition of FLT3/cKIT/FGFR3/VEGFR2/PDGFR/CSF1R in human RPMI-8226/BR resistant cells assessed as reduction of cell viability; conditions: condition multiple myeloma
# RPMI-8226 = assay: Cytotoxicity against human RPMI-8226 cells assessed as reduction of cell growth incubated for 72 hrs by CellTiter 96 aqueous one solution cell proliferation assay; format: functional, cell-based; conditions: RPMI-8226, 72 h
# [20] = Ratio of IC50 for inhibition of FLT3/cKIT/FGFR1/VEGFR1/PDGFR/CSF1R in human RPMI-8226 cells assessed as reduction of cell viability to IC50 for inhibition of FLT3/cKIT/FGFR1/VEGFR1/PDGFR/CSF1R in human melphalan-resistant RPMI-8226 cells assessed as reduction of cell viability; conditions: time 72 hrs; condition multiple myeloma
# cells [21] = conditions: Homo sapiens, Melphalan-resistant RPMI-8226 cell, 72 h
# [22] = Ratio of IC50 for inhibition of FLT3/cKIT/FGFR1/VEGFR1/PDGFR/CSF1R in human ANBL6 cells assessed as reduction of cell viability to IC50 for inhibition of FLT3/cKIT/FGFR1/VEGFR1/PDGFR/CSF1R in human ANBL6/BR resistant cells assessed as reduction of cell viability; conditions: condition multiple myeloma
# [23] = Ratio of IC50 for inhibition of FLT3/cKIT/FGFR1/VEGFR2/PDGFR/CSF1R in human ANBL6 cells assessed as reduction of cell viability to IC50 for inhibition of FLT3/cKIT/FGFR1/VEGFR2/PDGFR/CSF1R in human ANBL6/BR resistant cells assessed as reduction of cell viability; conditions: condition multiple myeloma
# [24] = Ratio of IC50 for inhibition of FLT3/cKIT/FGFR3/VEGFR1/PDGFR/CSF1R in human RPMI-8226 cells assessed as reduction of cell viability to IC50 for inhibition of FLT3/cKIT/FGFR3/VEGFR1/PDGFR/CSF1R in human melphalan-resistant RPMI-8226 cells assessed as reduction of cell viability; conditions: time 72 hrs; condition multiple myeloma
# [25] = Ratio of IC50 for inhibition of FLT3/cKIT/FGFR1/VEGFR3/PDGFR/CSF1R in human ANBL6 cells assessed as reduction of cell viability to IC50 for inhibition of FLT3/cKIT/FGFR1/VEGFR3/PDGFR/CSF1R in human ANBL6/BR resistant cells assessed as reduction of cell viability; conditions: condition multiple myeloma
# [26] = Ratio of IC50 for inhibition of FLT3/cKIT/FGFR3/VEGFR3/PDGFR/CSF1R in human ANBL6 cells assessed as reduction of cell viability to IC50 for inhibition of FLT3/cKIT/FGFR3/VEGFR3/PDGFR/CSF1R in human ANBL6/BR resistant cells assessed as reduction of cell viability; conditions: condition multiple myeloma
# [27] = Ratio of IC50 for inhibition of FLT3/cKIT/FGFR1/VEGFR3/PDGFR/CSF1R in human RPMI-8226 cells assessed as reduction of cell viability to IC50 for inhibition of FLT3/cKIT/FGFR1/VEGFR3/PDGFR/CSF1R in human RPMI-8226/BR resistant cells assessed as reduction of cell viability; conditions: condition multiple myeloma
# cells [28] = conditions: Homo sapiens, Bortezomib-resistant RPMI-8226, 72 h
# [29] = Ratio of IC50 for inhibition of FLT3/cKIT/FGFR3/VEGFR2/PDGFR/CSF1R in human RPMI-8226 cells assessed as reduction of cell viability to IC50 for inhibition of FLT3/cKIT/FGFR3/VEGFR2/PDGFR/CSF1R in human melphalan-resistant RPMI-8226 cells assessed as reduction of cell viability; conditions: time 72 hrs; condition multiple myeloma
# [30] = Ratio of IC50 for inhibition of FLT3/cKIT/FGFR1/VEGFR2/PDGFR/CSF1R in human RPMI-8226 cells assessed as reduction of cell viability to IC50 for inhibition of FLT3/cKIT/FGFR1/VEGFR2/PDGFR/CSF1R in human melphalan-resistant RPMI-8226 cells assessed as reduction of cell viability; conditions: time 72 hrs; condition multiple myeloma
# [31] = Ratio of IC50 for inhibition of FLT3/cKIT/FGFR1/VEGFR1/PDGFR/CSF1R in human RPMI-8226 cells assessed as reduction of cell viability to IC50 for inhibition of FLT3/cKIT/FGFR1/VEGFR1/PDGFR/CSF1R in human RPMI-8226/BR resistant cells assessed as reduction of cell viability; conditions: condition multiple myeloma
# [32] = Ratio of IC50 for inhibition of FLT3/cKIT/FGFR1/VEGFR2/PDGFR/CSF1R in human RPMI-8226 cells assessed as reduction of cell viability to IC50 for inhibition of FLT3/cKIT/FGFR1/VEGFR2/PDGFR/CSF1R in human RPMI-8226/BR resistant cells assessed as reduction of cell viability; conditions: condition multiple myeloma
# [33] = Ratio of IC50 for inhibition of FLT3/cKIT/FGFR3/VEGFR1/PDGFR/CSF1R in human RPMI-8226 cells assessed as reduction of cell viability to IC50 for inhibition of FLT3/cKIT/FGFR3/VEGFR1/PDGFR/CSF1R in human RPMI-8226/BR resistant cells assessed as reduction of cell viability; conditions: condition multiple myeloma
# [34] = test system: Bortezomib-resistant ANBL6; assay: cells; conditions: Homo sapiens, Bortezomib-resistant ANBL6, 72 h
# [35] = Ratio of IC50 for inhibition of FLT3/cKIT/FGFR1/VEGFR3/PDGFR/CSF1R in human RPMI-8226 cells assessed as reduction of cell viability to IC50 for inhibition of FLT3/cKIT/FGFR1/VEGFR3/PDGFR/CSF1R in human melphalan-resistant RPMI-8226 cells assessed as reduction of cell viability; conditions: time 72 hrs; condition multiple myeloma
# [36] = Ratio of IC50 for inhibition of FLT3/cKIT/FGFR3/VEGFR3/PDGFR/CSF1R in human RPMI-8226 cells assessed as reduction of cell viability to IC50 for inhibition of FLT3/cKIT/FGFR3/VEGFR3/PDGFR/CSF1R in human RPMI-8226/BR resistant cells assessed as reduction of cell viability; conditions: condition multiple myeloma
# [37] = Ratio of IC50 for inhibition of FLT3/cKIT/FGFR3/VEGFR1/PDGFR/CSF1R in human ANBL6 cells assessed as reduction of cell viability to IC50 for inhibition of FLT3/cKIT/FGFR3/VEGFR1/PDGFR/CSF1R in human ANBL6/BR resistant cells assessed as reduction of cell viability; conditions: condition multiple myeloma
# [38] = Ratio of IC50 for inhibition of FLT3/cKIT/FGFR3/VEGFR2/PDGFR/CSF1R in human ANBL6 cells assessed as reduction of cell viability to IC50 for inhibition of FLT3/cKIT/FGFR3/VEGFR2/PDGFR/CSF1R in human ANBL6/BR resistant cells assessed as reduction of cell viability; conditions: condition multiple myeloma
# ANBL-6 [39] = assay: cells; conditions: Homo sapiens, ANBL-6, 72 h
# [40] = Ratio of IC50 for inhibition of FLT3/cKIT/FGFR3/VEGFR3/PDGFR/CSF1R in human RPMI-8226 cells assessed as reduction of cell viability to IC50 for inhibition of FLT3/cKIT/FGFR3/VEGFR3/PDGFR/CSF1R in human melphalan-resistant RPMI-8226 cells assessed as reduction of cell viability; conditions: time 72 hrs; condition multiple myeloma
compound,measurement,setting,value
CC(C)C[C@H](NC(=O)[C@H](Cc1ccccc1)NC(=O)c1cnccn1)B(O)O [BORTEZOMIB],inhibition,[1],inactive
same,inhibition,[2],Active
same,Activity,ANBL-6 [4],7%
same,Activity,[5],6%
same,Activity,[8],45%
same,inhibition,[9],Active
same,Activity,ANBL-6 [12],71%
same,inhibition,[13],inactive
same,Activity,ANBL-6 [15],22%
same,Activity,[18],49%
CN1CCN(c2ccc3nc(-c4c(N)c5c(F)cccc5[nH]c4=O)[nH]c3c2)CC1 [DOVITINIB],IC50,U-266,6760 nM
same,Ratio IC50,[19],0.38
same,IC50,RPMI-8226,2140 nM
same,Ratio IC50,[20],2.6
same,IC50,cells [21],2950 nM
same,Ratio IC50,[22],1.51
same,Ratio IC50,[23],1.51
same,Ratio IC50,[24],2.6
same,Ratio IC50,[25],1.51
same,Ratio IC50,[26],1.51
same,Ratio IC50,[27],0.38
same,IC50,cells [28],5620 nM
same,Ratio IC50,[29],2.6
same,Ratio IC50,[30],2.6
same,Ratio IC50,[31],0.38
same,Ratio IC50,[32],0.38
same,Ratio IC50,[33],0.38
same,IC50,[34],6610 nM
same,Ratio IC50,[35],2.6
same,Ratio IC50,[36],0.38
same,Ratio IC50,[37],1.51
same,Ratio IC50,[38],1.51
same,IC50,ANBL-6 [39],10000 nM
same,Ratio IC50,[40],2.6
